The values below come from ChEMBL document CHEMBL3351551, “Neuraminidase inhibitory activities of quaternary isoquinoline alkaloids from Corydalis turtschaninovii rhizome” (Bioorg Med Chem, 2014).

Assay [1] in a line: Inhibition of Clostridium perfringens neuraminidase 4-methylumbelliferyl-alpha-D-Nacetylneuraminic acid sodium salt hydrate as substrate by fluorometry.
Assay [2] concerns Clostridium perfringens. Nature of the assay: Antibacterial activity against Clostridium perfringens in tryptic soy broth after 24 hrs. It is filed as functional.
The target in assay [3] is Neuraminidase (Influenza A virus (strain A/USSR/90/1977 H1N1), UniProt P03469). Kind of assay: Inhibition of recombinant Influenza A virus H1N1 neuraminidase using 4-methylumbelliferyl-alpha-D-Nacetylneuraminic acid sodium salt hydrate as substrate by fluorometry.
Chain of Neuraminidase (P03469 whole entry): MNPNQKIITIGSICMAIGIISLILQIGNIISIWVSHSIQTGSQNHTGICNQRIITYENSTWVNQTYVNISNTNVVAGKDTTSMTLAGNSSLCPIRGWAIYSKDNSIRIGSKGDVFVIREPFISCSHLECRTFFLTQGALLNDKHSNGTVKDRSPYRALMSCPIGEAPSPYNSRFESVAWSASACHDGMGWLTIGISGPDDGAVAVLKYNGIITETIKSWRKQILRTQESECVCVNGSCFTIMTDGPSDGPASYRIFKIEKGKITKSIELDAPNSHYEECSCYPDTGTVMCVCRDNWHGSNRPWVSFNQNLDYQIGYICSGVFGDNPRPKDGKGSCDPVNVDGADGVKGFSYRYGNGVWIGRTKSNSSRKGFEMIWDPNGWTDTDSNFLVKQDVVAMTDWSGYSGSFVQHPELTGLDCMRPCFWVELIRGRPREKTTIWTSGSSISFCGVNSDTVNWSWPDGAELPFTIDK
A short description of assay [4]: Inhibition of Clostridium perfringens neuraminidase by Dixon plot.
For assay [5], the system named is Clostridium perfringens. Kind of assay: Inhibition of Clostridium perfringens neuraminidase 4-methylumbelliferyl-alpha-D-Nacetylneuraminic acid sodium salt hydrate as substrate at 100 uM by fluorometry.

Converted amounts (≈) assume the structure as drawn.

In general, IC50 refers to the point on the concentration scale where inhibition reaches its midpoint. With `COc1cc2c(cc1OC)-c1c(C)c3cc(OC)c(OC)cc3c[n+]1CC2`, the concentration for half-maximal inhibition (IC50) in assay [1] stood at 32.6 µM. By MIC is commonly meant the lowest concentration found to suppress growth. A lower MIC goes with a more susceptible organism. The compound `CC1(C)S[C@@H]2[C@H](NC(=O)[C@H](N)c3ccccc3)C(=O)N2[C@H]1C(=O)O` [AMPICILLIN] returned a minimal inhibitory concentration (MIC) in assay [2] of 0.3 µM (≈ 0.105 µg/mL). Consider `COc1cc2c(cc1O)CC[n+]1cc3c(OC)c(OC)ccc3cc1-2` [JATRORRHIZINE], for which the half-inhibitory concentration (IC50) turned out to be 37 µM in assay [1] and 66.2 µM in assay [3]. Take `COc1cc(/C=C/C(=O)CC(=O)/C=C/c2ccc(O)c(OC)c2)ccc1O` [CURCUMIN]: the IC50 in assay [1] was found to be 6 µM. The Ki is the dissociation constant of the complex between target and ligand, obtained from inhibition or displacement. For `COc1cc2c(cc1OC)-c1cc3ccc(OC)c(OC)c3c[n+]1CC2` [PALMITINE], the concentration for half-maximal inhibition (IC50) in assay [1] was found to be 12.8 µM; in assay [3] it was 33.1 µM. Also, the affinity in assay [4], expressed as Ki, was 16.9 µM. Also, in assay [2], the MIC is 44.7 µM. `COc1cc2c(cc1OC)-c1c(OC)c(OC)cc3c1[C@H](C2)N(C)CC3` [GLAUCINE]: the 50% inhibitory concentration (IC50) in assay [1] came to 96.9 µM.

`COc1ccc2cc3[n+](cc2c1OC)CCc1cc2c(cc1-3)OCO2` [BERBERINE]: the results for the IC50 in assay [1] and in assay [3] were 13.5 µM and 38.5 µM, respectively. The same compound gave a Ki in assay [4] of 11.9 µM. The same compound yielded a minimum inhibitory concentration (MIC) in assay [2] of 52.2 µM. In general, inhibition refers to the change of the read-out against control, counted positive when it falls. On to `c1cc2c(c3c1CC1c4cc5c(cc4CCN1C3)OCO5)OCO2` (configuration not stated), for which the inhibition in assay [5] came to 4.7%.

With `COc1cc2c(cc1OC)[C@H]1[C@@H](C)c3ccc(OC)c(OC)c3CN1CC2`, the inhibition in assay [5] worked out at 12.7%. Take `COc1cc2c(cc1O)CC[n+]1cc3c(OC)c(OC)ccc3c(C)c1-2`: the concentration for half-maximal inhibition (IC50) in assay [1] is 41.3 µM; in assay [3] it was 80.5 µM. For the compound `c1c2c(cc3c1OCO3)-c1cc3cc4c(cc3c[n+]1CC2)OCO4`, the IC50 in assay [1] came out at 65.2 µM; in assay [3] it was 126 µM. For the compound `c1c2c(cc3c1OCO3)-c1cc3ccc4c(c3c[n+]1CC2)OCO4` [COPTISINE], the figures for the concentration for half-maximal inhibition (IC50) in assay [1] and in assay [3] were 25.1 µM and 25.3 µM, respectively.
